17 molecules from PubChem BioAssay AID248 (DTP/NCI, 2004) can be followed below.

Structures are written as SMILES. Several values for one entry are separate records, joined by “and”; a condition that tells them apart may be missing. Identical values can stand only once. Toxic doses and inconclusive results are not listed.

For the test, the system named is L1210 leukemia ip in BDF1 mice, survival T/C. The experiment in a line: NCI In Vivo Anticancer Drug Screen. Data for tumor model L1210 Leukemia (intraperitoneal) in B6D2F1 (BDF1) mice. The note with it: endpoint: mean survival time, higher = longer survival. In outline:
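In this screen, tumor-bearing mice given compound are compared to those given vehicle, and their survival values are reported as a treated-to-control quotient.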

[1] abbreviates: dose: 100.0 mg/kg/injection, schedule: Q01DX001 (ip), vehicle: saline.
The mark [2] stands for this setting: dose: 200.0 mg/kg/injection, schedule: Q01DX001 (ip), vehicle: saline.
Where [3] appears, read: dose: 400.0 mg/kg/injection, schedule: Q01DX001 (ip), vehicle: saline.
Where [4] appears, read: dose: 100.0 mg/kg/injection, schedule: Q01DX009 (ip), vehicle: saline with Tween-80.
The mark [5] stands for this setting: dose: 200.0 mg/kg/injection, schedule: Q01DX009 (ip), vehicle: saline with Tween-80.
The mark [6] stands for this setting: dose: 400.0 mg/kg/injection, schedule: Q01DX009 (ip), vehicle: saline with Tween-80.
[7] abbreviates: dose: 100.0 mg/kg/injection, schedule: Q04DX003 (ip), vehicle: saline sonified.
Where [8] appears, read: dose: 200.0 mg/kg/injection, schedule: Q04DX003 (ip), vehicle: saline sonified.
[9] abbreviates: dose: 400.0 mg/kg/injection, schedule: Q04DX003 (ip), vehicle: saline sonified.
The mark [10] stands for this setting: dose: 100.0 mg/kg/injection, schedule: Q04DX002 (ip), vehicle: saline.
The mark [11] stands for this setting: dose: 200.0 mg/kg/injection, schedule: Q04DX002 (ip), vehicle: saline.
[12] abbreviates: dose: 400.0 mg/kg/injection, schedule: Q04DX002 (ip), vehicle: saline.

Turning to `CC(=O)N1C(CO)C(O)C(O)C1n1cnc2c(N)ncnc21` (stereo not given), the T/C by setting is: under setting [1], 106 % of control; under setting [2], 96 % of control; under setting [3], 96 % of control.
In the case of `O=NN(CCCl)C(=O)Nc1ccc2[nH]c3ccccc3c2c1`, the T/C (dose: 90.0 mg/kg/injection, schedule: Q01DX009 (ip), vehicle: carboxymethylcellulose (CMC)) is 120 % of control; the T/C (dose: 260.0 mg/kg/injection, schedule: Q01DX009 (ip), vehicle: Klucel (hydroxypropylcellulose) (HPC)) was 108 % of control; the T/C (dose: 266.0 mg/kg/injection, schedule: Q01DX009 (ip), vehicle: carboxymethylcellulose (CMC)) is 157 % of control; the T/C (dose: 520.0 mg/kg/injection, schedule: Q01DX009 (ip), vehicle: Klucel (hydroxypropylcellulose) (HPC)) is 88 % of control; the T/C (dose: 600.0 mg/kg/injection, schedule: Q01DX009 (ip), vehicle: carboxymethylcellulose (CMC)) was 108 % of control.
Turning to `O=c1c2c(O)cccc2oc2cccc(O)c12`, the T/C was 95 % of control under setting [4], 91 % of control under setting [5] and 96 % of control under setting [6].
For the molecule `COC1=C(Nc2ccccc2C)C(=O)C(OC)=C(Nc2ccccc2C)C1=O`, the T/C by setting is: (dose: 50.0 mg/kg/injection, schedule: Q01DX001 (ip), vehicle: carboxymethylcellulose (CMC)) 87 % of control; (dose: 100.0 mg/kg/injection, schedule: Q01DX001 (ip), vehicle: carboxymethylcellulose (CMC)) 96 % of control; (dose: 200.0 mg/kg/injection, schedule: Q01DX001 (ip), vehicle: carboxymethylcellulose (CMC)) 98 % of control; (dose: 400.0 mg/kg/injection, schedule: Q01DX001 (ip), vehicle: carboxymethylcellulose (CMC)) 96 % of control.
In the case of `O=C(CN1CC1)NCCCCCCCNC(=O)CN1CC1`, the T/C is, setting by setting: (dose: 6.5 mg/kg/injection, schedule: Q01DX001 (ip), vehicle: carboxymethylcellulose (CMC)) 120 % of control; (dose: 7.0 mg/kg/injection, schedule: Q01DX009 (ip), vehicle: carboxymethylcellulose (CMC)) 94 % of control; (dose: 9.7 mg/kg/injection, schedule: Q01DX001 (ip), vehicle: carboxymethylcellulose (CMC)) 123 % of control; (dose: 11.0 mg/kg/injection, schedule: Q01DX009 (ip), vehicle: carboxymethylcellulose (CMC)) 100 % of control; (dose: 16.0 mg/kg/injection, schedule: Q01DX009 (ip), vehicle: carboxymethylcellulose (CMC)) 94 % of control; (dose: 25.0 mg/kg/injection, schedule: Q01DX009 (ip), vehicle: carboxymethylcellulose (CMC)) 103 % of control. Also, the T/C (dose: 33.0 mg/kg/injection, schedule: Q01DX001 (ip), vehicle: carboxymethylcellulose (CMC)) is 154 % of control.
For `Nc1ccc(CCc2ccc(Cl)cc2S(=O)(=O)F)c(Cl)c1`, the T/C runs as follows: (dose: 100.0 mg/kg/injection, schedule: Q01DX009 (ip), vehicle: saline sonified) 97 % of control; under setting [7], 100 % of control; (dose: 200.0 mg/kg/injection, schedule: Q01DX009 (ip), vehicle: saline sonified) 92 % of control; under setting [8], 100 % of control; (dose: 400.0 mg/kg/injection, schedule: Q01DX009 (ip), vehicle: saline sonified) 98 % of control; under setting [9], 96 % of control.
For the molecule `C[C@@H]1CN(C(=O)CCOS(C)(=O)=O)[C@@H](C)CN1C(=O)CCOS(C)(=O)=O`, the T/C (dose: 2.5 mg/kg/injection, schedule: Q01DX Z (ip), vehicle: carboxymethylcellulose (CMC)) was 112 % of control; the T/C (dose: 3.7 mg/kg/injection, schedule: Q01DX Z (ip), vehicle: carboxymethylcellulose (CMC)) is 102 % of control; the T/C (dose: 5.6 mg/kg/injection, schedule: Q01DX Z (ip), vehicle: carboxymethylcellulose (CMC)) was 115 % of control; the T/C (dose: 8.4 mg/kg/injection, schedule: Q01DX Z (ip), vehicle: carboxymethylcellulose (CMC)) is 103 % of control; the T/C (dose: 29.5 mg/kg/injection, schedule: Q01DX Z (ip), vehicle: carboxymethylcellulose (CMC)) is 116 % of control; the T/C (dose: 60.0 mg/kg/injection, schedule: Q01DX Z (ip), vehicle: carboxymethylcellulose (CMC)) is 166 % of control. In addition, the T/C reads like this: (dose: 198.0 mg/kg/injection, schedule: Q01DX Z (ip), vehicle: carboxymethylcellulose (CMC)) 117 % of control; (dose: 200.0 mg/kg/injection, schedule: Q01DX Z (ip), vehicle: carboxymethylcellulose (CMC)) 119 % of control; (dose: 201.0 mg/kg/injection, schedule: Q01DX Z (ip), vehicle: carboxymethylcellulose (CMC)) 91 % of control; (dose: 300.0 mg/kg/injection, schedule: Q01DX Z (ip), vehicle: carboxymethylcellulose (CMC)) 121 % of control and 90 % of control; (dose: 302.0 mg/kg/injection, schedule: Q01DX Z (ip), vehicle: carboxymethylcellulose (CMC)) 95 % of control.
With `O=C(O)C1CCC2(CCCCC2)CC1`, the T/C is 101 % of control (dose: 25.0 mg/kg/injection, schedule: Q01DX009 (ip), vehicle: water); 93 % of control (dose: 50.0 mg/kg/injection, schedule: Q01DX009 (ip), vehicle: water); 98 % of control (dose: 100.0 mg/kg/injection, schedule: Q01DX009 (ip), vehicle: water); 92 % of control (dose: 200.0 mg/kg/injection, schedule: Q01DX009 (ip), vehicle: water).
As to `Cn1c2ccc(Cl)cc2c2nnc(NCCCO)nc21`, the T/C by setting is: under setting [10], 97 % of control; under setting [11], 89 % of control; under setting [12], 93 % of control.
On to `CCOC(=O)Cc1c(C(=O)OCC)[nH]c(C)c1C(C)=O`, for which the T/C is, setting by setting: (dose: 100.0 mg/kg/injection, schedule: Q01DX001 (ip), vehicle: Klucel (hydroxypropylcellulose) (HPC)) 104 % of control; (dose: 200.0 mg/kg/injection, schedule: Q01DX001 (ip), vehicle: Klucel (hydroxypropylcellulose) (HPC)) 95 % of control; (dose: 400.0 mg/kg/injection, schedule: Q01DX001 (ip), vehicle: Klucel (hydroxypropylcellulose) (HPC)) 95 % of control.
For `CC(C)CCC[C@@H](C)[C@H]1CC[C@H]2[C@@H]3CC[C@H]4C[C@H](NC(=O)N(CCCl)N=O)CC[C@]4(C)[C@H]3CC[C@]12C`, the T/C was 103 % of control (dose: 10.0 mg/kg/injection, schedule: Q01DX001 (ip), vehicle: other); 95 % of control (dose: 23.0 mg/kg/injection, schedule: Q01DX001 (ip), vehicle: other); 104 % of control (dose: 46.0 mg/kg/injection, schedule: Q01DX001 (ip), vehicle: other); 103 % of control (dose: 93.0 mg/kg/injection, schedule: Q01DX001 (ip), vehicle: other); 103 % of control (dose: 187.0 mg/kg/injection, schedule: Q01DX001 (ip), vehicle: other); 110 % of control (dose: 375.0 mg/kg/injection, schedule: Q01DX001 (ip), vehicle: other). In addition, the T/C by setting is: (dose: 500.0 mg/kg/injection, schedule: Q01DX001 (ip), vehicle: other) 104 % of control; (dose: 1000.0 mg/kg/injection, schedule: Q01DX001 (ip), vehicle: other) 119 % of control.
As to `CC(C)C1CC2CCC3C(C)(C(=O)O)CCCC3(C)C2CC1CO` (stereo not given), the T/C is 92 % of control (dose: 100.0 mg/kg/injection, schedule: Q04DX003 (ip), vehicle: saline with Tween-80); 92 % of control (dose: 200.0 mg/kg/injection, schedule: Q04DX003 (ip), vehicle: saline with Tween-80); 93 % of control (dose: 400.0 mg/kg/injection, schedule: Q04DX003 (ip), vehicle: saline with Tween-80).
Consider `CC(Br)C(=O)NC(C)C(=O)O` (stereo not given), for which the T/C under setting [4] is 89 % of control, the T/C under setting [5] was 86 % of control and the T/C under setting [6] is 91 % of control.
Take `CC(Cl)CNC(C)C` (stereo not given): the T/C is 103 % of control under setting [1], 92 % of control under setting [2] and 103 % of control under setting [3].
`C=C1CCCC(O)CCC1`: the T/C runs as follows: (dose: 75.0 mg/kg/injection, schedule: Q01DX001 (ip), vehicle: other) 102 % of control; (dose: 150.0 mg/kg/injection, schedule: Q01DX001 (ip), vehicle: other) 98 % of control; (dose: 300.0 mg/kg/injection, schedule: Q01DX001 (ip), vehicle: other) 96 % of control.
As to `CC1(C)OC2OC(C(O)CO)C(O)C2O1` (stereo not given), the T/C reads like this: under setting [10], 86 % of control; under setting [11], 107 % of control; under setting [12], 90 % of control.
As to `CCCC(O)(CCC)CC1=NC(C)(C)CO1`, the T/C is 87 % of control under setting [7], 98 % of control under setting [8] and 95 % of control under setting [9].
